Laboratory results as given in patent publication US20180369195A1, “COMBINATION THERAPY FOR TREATMENT OF MELANOMA” (The Regents of the University of California, priority 2015, published 2018).
Entries after “also recorded” stand apart in the source; their conditions may differ.

Tests used:
G-361 melanoma cells = experiment: CCK-8 proliferation assay, G-361; format: cell-based, human
Experimental: (§1) The same treatment regime was repeated on multiple melanoma cell lines with 20 μM 1-benzyl I3C and 200 μM I3C for 48 hours to compare the relative sensitivities of the different cell lines with distinct mutation profiles to 1-benzyl I3C and I3C. Cells were treated with 20 μM 1-benzyl I3C every 24 hours for 72 hours and harvested at 24, 48 and 72 hours for western blot and flow cytometric analysis. Cells were treated with 20 μM LiCl or 10 μM BIO for 48 hours before harvesting them for western blots.
(§2) To study the effect of I3C, cells were treated with or without 200 μM I3C every 24 hours for 72 hours and harvested at 24, 48 and 72 hours for western blot and flow cytometric analysis.
(§3) Subsequently inhibition of proliferation was assessed using Cell counting Kit-8 (Dojindo) as per the protocol in the user's manual. Briefly, 50 μl of the CCK-8 solution was added to each well along with 450 μl media and incubated for 2-3 hours. The absorbance was read at 450 nm and % inhibition was calculated for each condition standardizing DMSO to zero using the formula: [(100−Value of treatment/Value of DMSO treated control)×100]

MITF-M = MITF-M protein levels in cultured melanoma cells (western blot, immunofluorescence); format: cell-based, human
Experimental: Western Blot analyses of samples electrophoretically fractionated on 12% acrylamide gels were carried out as previously described (Wagle et al., J. Clin. Oncol. 2011. 29(22):3085-3096; Nguyen et al., Chem. Biol. Interact. 2010. 186(3):255-266). Enhanced chemiluminescence (ECL) Lightening reagents were used to visualize the primary antibody bound protein bands in nitrocellulose membranes and the results captured on ECL Autoradiography Film (GE Healthcare, Piscataway, N.J.). The western blots employed the following primary antibodies: mouse anti-MITF-M (Thermo-scientific), mouse anti-HSP 90 (BD Biosciences), mouse anti-CDK2, rabbit anti-CDK4, rabbit anti-CDK-6, mouse anti-rabbit BRAF, goat anti-LEF-1, rabbit anti-AXIN, mouse anti-BCL2, (Santa Cruz), rabbit anti-P21, mouse anti-Cyclin D1, rabbit anti-MEK-p, rabbit anti-MEK1/2, rabbit anti-GSK3β rabbit anti-LRP6, rabbit anti-LRP6-phospho (Cell signaling), mouse anti-β-catenin (Invitrogen).

[1] = system: G-361 cell-derived tumor xenografts; experiment: G-361 melanoma tumor xenograft growth in athymic nude mice; format: in vivo
Experimental: Approximately 1 million G361 melanoma cells in a total volume of 0.1 ml of Matrigel were injected subcutaneously into each lateral flank of NIH III athymic nude mice. The resulting tumors were allowed to grow to a mean starting volume of 146±10 mm^3. […] The resulting tumor volumes were measured every other day for four weeks using calipers. The tumor volumes were calculated using the standard formula: (Width×Length)/2, and changes in tumor volumes were calculated using the formula: 100+{(Tf−Ti)/Ti×100}, where Tf is the final mean tumor volume and Ti is the initial mean tumor volume. At terminal sacrifice, tumor xenografts were harvested, and a portion of each tumor was fixed in 4% para-formaldehyde for 1 hour at room temperature, followed by a phosphate-buffered saline (PBS) wash and subsequently immersed in […] overnight at 4° C. The resulting tissues were embedded in OCT and 10 μm thin sections were taken for immunofluorescence studies.

DM738 melanoma cells = experiment: CCK-8 proliferation assay, DM738; format: cell-based, human
Experimental: as §1, §2, §3

SK-MEL-2 cells = experiment: CCK-8 proliferation assay, SK-MEL-2; format: cell-based, human; details: for antiproliferation in wild-type BRAF cells: 48 hours
Experimental: […] Cells were treated with 20 μM 1-benzyl I3C every 24 hours for 72 hours and harvested at 24, 48 and 72 hours for western blot and flow cytometric analysis. Cells were treated with 20 μM LiCl or 10 μM BIO for 48 hours before harvesting them for western blots.
as §3

MITF-M promoter = MITF-M promoter luciferase reporter assay; format: cell-based, human; details: G361 cells, 24 hours
Experimental: G361 Melanoma cells were cultured to approximately 80% confluency in 6 well adherent culture plates in triplicates for each experimental condition for 24 hours. The cells were then transiently transfected with either a wild-type pGL2-pMITF-333/+120-luciferase reporter plasmid or a similar plasmid with the LEF-1/TCF binding site mutated at −199. pGL2-pMITF-333/+120-ΔLEF-1-luciferase, (ALEF-1) was generated using the following primers: LEF-1 forward, 5′-[…]-3′ (SEQ ID NO:5) and LEF-1 reverse, 5′-[…]-3′ (SEQ ID NO:6).
PCR conditions used were as follows: 30 s hotstart at 95° C., 30 s at 95° C., 1 min at 55° C., 8 min at 68° C. for 16 cycles. Mutagenesis was performed using QuickChange II kit (Aligent) per the manufacturer's instructions. PCR products were extracted and purified using QIAquick Gel Extraction Kit (Qiagen). Sequence was confirmed by automated DNA sequencing (University of California Berkeley Sequencing Facility). […] 20 μl of supernatant from each sample was combined with 100 μl luciferase substrate (Promega) and emitted fluorescence was measured using luminometer, Lumat LB 9507 (EG&G Berthold) and the relative light units (RLU) were recorded. The RLU/μg for each sample was calculated by dividing the data obtained with their specific protein concentration determined by a Bradford assay using 1× BioRad Protein Assay reagent and measuring O.D at 595 nm.

[2] = 200 μM I3C, 72 hours, BRAF-V600E

OCc1c[nH]c2ccccc12 [I3C, indole-3-carbinol]
sensitivity to anti-proliferative effects (G-361 melanoma cells; [2]): Most sensitive | proliferative arrest (G-361 melanoma cells; 200 μM I3C, submaximal 24 hours, empty vector transfected or untransfected cells): 60% | optimum concentration for antiproliferation (G-361 melanoma cells; 48 hours): 200 to 300 µM | MITF-M protein levels (western blot) (MITF-M; G-361 and DM738 cells, varying concentrations of I3C, 48 hours): strongly down-regulated MITF-M levels | MITF-M protein levels (western blot) (MITF-M; G-361 cells, 48 hours, 200 μM I3C, 10 μM Vemurafenib or 10 μM U0126): down regulated | MITF-M protein levels (western blot) (MITF-M; SK-MEL-2 cells (wild type BRAF), I3C): expressed high levels of MITF-M protein at all concentrations of I3C; also recorded: no downregulation of MITF-M levels | tumor growth ([1]; I3C 200 mg/kg body weight injected daily, four-week course, vs DMSO vehicle): strongly inhibited tumor growth | sensitivity to anti-proliferative effects (DM738 melanoma cells; [2]): Most sensitive | optimum concentration for antiproliferation (DM738 melanoma cells; 48 hours): 200 to 300 µM | sensitivity to anti-proliferative effects (SK-MEL-2 cells; 200 μM I3C, 72 hours, wild type BRAF): significantly less sensitive | antiproliferation in wild-type BRAF cells (SK-MEL-2 cells): ineffective | MITF-M promoter activity (−333/+120 luciferase reporter, WT) (MITF-M promoter; 200 μM I3C): strongly down regulated MITF-M promoter activity

OCc1cn(Cc2ccccc2)c2ccccc12 [1-benzyl I3C, 1-benzyl indole-3-carbinol]
fold lower concentration than I3C (G-361 melanoma cells; 48 hours): 10-20 fold | optimum concentration for antiproliferation (G-361 melanoma cells; 48 hours): 10 to 20 µM | fold lower concentration than I3C (G-361 melanoma cells; 48 hours, listed as 1-Benzyl I3C): > 10 fold | antiproliferation compared with I3C (G-361 melanoma cells; varying doses, 48 hours): significantly greater antiproliferation than I3C | MITF-M protein levels (western blot) (MITF-M; G361 and DM738 cells, 1-benzyl I3C, 24, 48, 72 hours): significant downregulation of MITF-M | MITF-M protein levels (western blot) (MITF-M; SK-MEL-2 cells (WT BRAF), 1-benzyl I3C, 24, 48, 72 hours): significant inhibitory effect on MITF-M protein levels | tumor growth ([1]; 1-benzyl I3C 20 mg/kg body weight subcutaneously everyday, 4-week time course, vs vehicle): strongly attenuated tumor growth | size of the residual tumors at termination of treatment ([1]; 1-benzyl I3C 20 mg/kg, week 4): significantly smaller than the vehicle control | fold lower concentration than I3C (DM738 melanoma cells; 48 hours): 10-20 fold | optimum concentration for antiproliferation (DM738 melanoma cells; 48 hours): 10 to 20 µM | antiproliferation compared with I3C (DM738 melanoma cells; varying doses, 48 hours): significantly greater antiproliferation than I3C | antiproliferation in wild-type BRAF cells (SK-MEL-2 cells): showed antiproliferation | MITF-M promoter activity (luciferase reporter, WT) (MITF-M promoter; 20 μM 1-benzyl I3C): Luciferase activity was significantly abrogated
